SMILES strings stand for the structures.

The term IC50 denotes the midpoint of a concentration-inhibition curve. The low end stands for greater potency in that assay, the high end for weaker potency in that assay.

Experiment [1] can be described thus: Cytotoxic activity of compound against MEL-28 (Human melanoma) cell line. The settings on record: SK-MEL-28. The format is functional.
The subject of the next experiment is A549. The experiment can be described thus: Cytotoxic activity against A-549 (Human lung carcinoma) cell line. Format: functional, cell-based.
The next experiment relates to HT-29. The experiment can be described thus: Cytotoxic activity of compound against HT-29 (Human colon carcinoma) cell line. The format is functional, cell-based.

Turning to `Cc1cc[n+](N(C)C)c2c1C(=O)c1nccc(Cl)c1C2=O`, the IC50 in experiment [1] was 330 nM; with A549, 330 nM; with HT-29, 1930 nM.
As to `Cc1cnc2c(c1)C(=O)c1ncc(C)cc1C2=O`, the IC50 is 40 nM in experiment [1], 40 nM with A549 and 420 nM with HT-29.
As for `O=C1c2nccc(-c3ccccc3[N+](=O)[O-])c2C(=O)c2nccc(O)c21`, the IC50 (in experiment [1]; in the experiment with A549; in the experiment on HT-29) was 7200 nM throughout.
`Cc1cnc2c(c1)C(=O)c1nccc(Cl)c1C2=O`: the IC50 in experiment [1] came to 30 nM; in the experiment with A549 it was 30 nM; in the experiment with HT-29 it was 40 nM.
Take `CCc1cnc2c(c1)C(=O)c1ncc(CC)cc1C2=O`: the results for the IC50 (in experiment [1]; with A549; in the experiment with HT-29) were 380 nM, 190 nM and 1880 nM, respectively.
Regarding `Cc1ccnc2c1C(=O)c1nc3c(cc1C2=O)CCCC3`, the IC50 in experiment [1] is 18000 nM; with A549 it was 4490 nM; in the experiment on HT-29, 18000 nM.
As for `O=C1c2cccnc2C(=O)c2ncccc21`, the IC50 came out at 4800 nM in experiment [1], 4800 nM with A549 and 5700 nM in the experiment on HT-29.
Regarding `Cc1ccnc2c1C(=O)c1nccc(N(C)C)c1C2=O`, the IC50 in experiment [1] was found to be 370 nM; in the experiment on A549, 370 nM; with HT-29, 930 nM.
As to `CCc1cnc2c(c1)C(=O)c1cc(CC)cnc1C2=O`, the IC50 in experiment [1] is 790 nM; with A549 it was 450 nM; with HT-29 it was 1880 nM.
As to `Cc1ccnc2c1C(=O)c1c(C)ccnc1C2=O`, the IC50 (in experiment [1]; in the experiment with A549; in the experiment on HT-29) was 2100 nM each time.
As for `Cc1cnc2c(c1)C(=O)c1cc(C)cnc1C2=O`, the IC50 stood at 210 nM in experiment [1], 210 nM in the experiment with A549 and 500 nM in the experiment with HT-29.
Turning to `CCc1c(C)cnc2c1C(=O)c1ncc(C)c(CC)c1C2=O`, the IC50 (in experiment [1]; in the experiment with A549; with HT-29) was 3400 nM in each case.
With `O=C1c2nccc(-c3ccccc3[N+](=O)[O-])c2C(=O)c2nccc(Cl)c21`, the IC50 in experiment [1] was 30 nM; in the experiment on A549 it was 30 nM; in the experiment with HT-29, 270 nM.
In the case of `CCc1c(C)cnc2c1C(=O)c1c(ncc(C)c1CC)C2=O`, the IC50 (in experiment [1]; in the experiment on A549; in the experiment with HT-29) was 8500 nM throughout.
Regarding `COc1cccc2c1C(=O)c1c(O)c3c(c(O)c1C2=O)C[C@@](O)(C(=O)CO)C[C@@H]3O[C@H]1C[C@H](N)[C@H](O)[C@H](C)O1` [DOXORUBICIN], the values for the IC50 (in experiment [1]; in the experiment with A549; in the experiment on HT-29) were 30 nM, 10 nM and 90 nM, respectively.
On to `O=C1c2cccnc2C(=O)c2cccnc21`, for which the IC50 (in experiment [1]; in the experiment on A549; with HT-29) was 4800 nM each time.
`Cc1ccnc2c1C(=O)c1nccc(C)c1C2=O`: the results for the IC50 (in experiment [1]; in the experiment on A549; with HT-29) were 1000 nM, 500 nM and 1000 nM, respectively.
For the compound `Cc1ccnc2c1C(=O)c1nccc(Cl)c1C2=O`, the IC50 in experiment [1] is 190 nM; in the experiment with A549 it was 190 nM; with HT-29, 1930 nM.

The values are drawn from ChEMBL document CHEMBL1137116, “Synthesis and structure-activity relationships of 1,5-diazaanthraquinones as antitumour compounds” (Bioorg Med Chem Lett, 2004).
